# Source: article PMC9490060, “Synthesis and evaluation of anticancer activity of quillaic acid derivatives: A cell cycle arrest and apoptosis inducer through NF-κB and MAPK pathways” (Frontiers in Chemistry, 2022)
# What was measured:
# [1] = system: SW620 (human colorectal cancer cell line); experiment: MTT anti-proliferative assay, SW620; format: cell-based; conditions: means ± SD, n = 3
# [2] = system: L02 (human normal liver cells); experiment: Cytotoxicity against normal cell line L02; format: cell-based
# Source text: The lack of selectivity between normal and cancer cells is one of the main limitations of antitumor drugs ([Dy and Adjei, 2013]). Therefore, we evaluated the cytotoxicity of compounds B2, and E in normal cell lines L02 (human normal liver cells) to determine the selectivity index (ratio of cytotoxicity in L02 cells compared to that in cancer cells). […] Therefore, this compound was chosen for further biological studies.
# The propidium iodide (PI) and Annexin V-FITC apoptosis detection kit were purchased from Invitrogen (Eugene, OR, United States). 3-(4,5-Dimethylthiazol-2-yl)-2,5-diphenyl-2H-tetrazolium bromide (MTT) was purchased from Sigma-Aldrich Co. (St. Louis, MO, United States). All human cell lines were used in this study, colorectal cancer cell HCT116, colorectal cancer cell SW620, breast cancer cell MCF-7, liver hepatocellular carcinoma cell BEL7402, liver hepatocellular carcinoma HepG2 and normal liver cell L02 were initially purchased from American Type Culture Collection (ATCC, Manassas, VA, United States). RPMI-1640 media, Dulbecco’s modified Eagle’s medium (DMEM), and foetal bovine serum (FBS) were provided from Gibco Company (Grand Island, NY, United States). Cell line MCF-7 and HepG2 were cultivated in DMEM containing 10% (v/v) heat-inactivated FBS, 100 units/ml penicillin and […] streptomycin (Grand Island, NY, United States). Cell lines HCT116, BEL7402, SW620, and L02 were cultivated in RPMI 1640 medium containing 10% (v/v) heat-inactivated FBS, 100 units/ml penicillin, and […] streptomycin. The cells were incubated at 37°C under a 5% CO2 and 90% relative humidity (RH) atmosphere.
# Stock solutions were prepared by diluting target compounds in DMSO at concentrations (1.25, 2.5, 5, and 10 mM). The stock solution was then diluted (1.25, 2.5, 5, and 10 μM) with culture medium, and the concentration of DMSO was controlled not to exceed 0.1%.
# Place the cells in a 96-well plate at an appropriate density to ensure exponential growth (1 × 10^4–1.2×10^4 cells per well) throughout the experiment, and then allow the cells to adhere for 24 h. The cells were then treated with continuous concentrations of each compound (1.25, 2.5, 5, and 10 μM) for 48 h. After 48 h of incubation, 15 μl of MTT solution was added to each well, and the final concentration was 2 mg/ml. Then incubate for another 4 h. After incubation, remove the MTT solution and add […] of DMSO to each well for staining. Shake vigorously for 10 min at room temperature to ensure complete dissolution. The optical density (OD) was read on a microplate reader (ELx 800, BioTek, Highland Park, Winooski, VT, United States) with a wavelength of 492 nm, and then the data was analyzed.
# IκB = experiment: Western blot, NF-κB signaling pathway: IκB; format: cell-based, human; conditions: HCT116, 2.5, 5 and 10 μM, 24 h
# Source text: The NF-κB pathway plays an important role in a variety of cellular functions, including cell growth, apoptosis, and tumorigenesis ([Hwang et al., 2012]). Interfering with NF-κB signaling can inhibit tumor cell proliferation and metastasis ([Yenmis et al., 2021]). Therefore, NF-κB inhibitors are considered as potential anticancer drugs ([Wang et al., 2017]).
# (§1) FIGURE 8 Effect of compound E on NF-κB signaling pathway in HCT116 cells. Cells were pretreated with the various concentrations of compound E (2.5, 5 and 10 μM) for 24 h. The expression of phospho-NF-κB p65, NF-κB p65, phospho-IκB, IκB were analyzed by Western blot. ***p < 0.001, **p < 0.01, *p < 0.05 vs. control group. The error bars represent the mean ± SD for three independent experiments.
# HCT116 cells were cultured with different concentrations of compound E for 24 h. Then, the floating cells were collected and washed twice with ice-cold PBS. Add cold RIPA buffer. After the cells were lysed on ice for 20 min, the lysate was centrifuged at 12,000 rpm for 15 min at 4°C. The BCA method determines the protein concentration. Separated by SDS/PAGE electrophoresis and transferred to a nitrocellulose filter membrane for Western blot analysis. The membrane was blocked with PBS containing 5% skim milk at room temperature for 2 h. […] The protein is detected by electrochemiluminescence (Bio-Rad, CA, United State).
# p38 = experiment: Western blot, MAPK signaling pathway: p38; format: cell-based, human; conditions: HCT116, 10 μM, 24 h
# Source text: Extracellular signal-regulated kinases are the most closely related MAPK. MAPK, a family of serine/threonine protein kinases, is also an important transmitter of signaling from the cell surface to the nucleus, and it is involved in the regulation of many physiological processes, including apoptosis ([Bian et al., 2021]). The MAPK pathway has been implicated in regulating tumor angiogenesis, proliferation, metastasis and invasion ([Ko et al., 2017]). MAPK family is mainly composed of ERK, p38 and JNK subfamily.
# as §1, with “9” for “8”, “phospho-ERK, ERK, phospho-JNK, JNK, phospho-p38, p38” for “phospho-NF-κB p65, NF-κB p65, phospho-IκB, IκB”
# HCT116 cells were cultured with different concentrations of compound E for 24 h. Then, the floating cells were collected and washed twice with ice-cold PBS. Add cold RIPA buffer. After the cells were lysed on ice for 20 min, the lysate was centrifuged at 12,000 rpm for 15 min at 4°C. The BCA method determines the protein concentration. […] The protein is detected by electrochemiluminescence (Bio-Rad, CA, United State).
# [3] = Stability under pharmacological experimental conditions (RPMI 1640 medium, liquid phase detection); format: physicochemical
# Method: Experimental method: Samples A-E were prepared and detected by liquid phase. Details are as follows.
# A: The purity of compound E was detected by liquid phase, and the peak time of compound E was judged.
# B: Liquid detection RPMI 1640 medium
# C: Compound E was dissolved in the RPMI 1640 medium and detected by liquid phase.
# D: Compound E was dissolved in the RPMI 1640 medium and placed in the incubator for 24 hours before detection by liquid phase.
# E: Compound E was dissolved in the RPMI 1640 medium and placed in the incubator for 48 hours before detection by liquid phase.
compound,measurement,setting,value
"CC1(C)CC[C@]2(C(=O)OCCn3nnnc3-c3ccccc3)[C@H](O)C[C@]3(C)C(=CC[C@@H]4[C@@]5(C)CC[C@H](O)[C@@](C)(C=O)[C@@H]5CC[C@]43C)[C@@H]2C1 [Compound E, 2-(5-phenyl-1H-tetrazol-1-yl)ethyl (4aR,5R,6aS,6bR,8aR,9S,10S,12aR,12bR,14bS)-9-formyl-5,10-dihydroxy-2,2,6a,6b,9,12a-hexamethyl-1,3,4,5,6,6a,6b,7,8,8a,9,10,11,12,12a,12b,13,14b-octadecahydropicene-4a (2H)-carboxylate]",IC50 values SW620,[1]; 48 h incubation,strong activity
same,IC50,"[1]; Homo sapiens, SW-620, 48 h incubation",4.69 ± 1.1 µM
same,IC50,"[2]; Homo sapiens, normal cell line L02",> 10 µM
same,Selectivity index BEL7402,[2]; IC50 on normal cells (L02)/IC50 on tumour cells (BEL7402),> 1.45
same,Selectivity index HCT116,[2]; IC50 on normal cells (L02)/IC50 on tumour cells (HCT116),> 4.06
same,Selectivity index HepG2,[2]; IC50 on normal cells (L02)/IC50 on tumour cells (HepG2),> 1.12
same,Selectivity index SW620,[2]; IC50 on normal cells (L02)/IC50 on tumour cells (SW620),> 2.13
same,phosphorylation and degradation of IκB,IκB,inhibited the phosphorylation and degradation of IκB
same,phosphorylation level of p38,p38,down-regulated
same,content of compound E (HPLC peak),[3]; after 24 hours in incubator,20.495%
same,content of compound E (HPLC peak),[3]; after 48 hours in incubator,19.557%
same,content of compound E (HPLC peak),[3]; check directly/0 hours,20.461%
same,stability under pharmacological experimental conditions,"[3]; incubator, up to 48 hours",high stability
